Test results taken from article PMC7327383, “The affinity and selectivity of α‐adrenoceptor antagonists, antidepressants, and antipsychotics for the human α1A, α1B, and α1D‐adrenoceptors” (Pharmacology Research & Perspectives, 2020).
Where two headings read alike, the source gives them in different places. Values belong to the compound of their own block, whether it stands above or below them.

Assays:
[1] = target: T1, full-length human α1D-adrenoceptor (Homo sapiens, UniProt P25100); experiment: [3H]prazosin whole-cell competition binding, CHO-α1D cells; settings: for Selectivity ratio α1B vs α1D: ratio of KD values, higher α1D affinity (site 1 KD)
T1 sequence (P25100 1-572): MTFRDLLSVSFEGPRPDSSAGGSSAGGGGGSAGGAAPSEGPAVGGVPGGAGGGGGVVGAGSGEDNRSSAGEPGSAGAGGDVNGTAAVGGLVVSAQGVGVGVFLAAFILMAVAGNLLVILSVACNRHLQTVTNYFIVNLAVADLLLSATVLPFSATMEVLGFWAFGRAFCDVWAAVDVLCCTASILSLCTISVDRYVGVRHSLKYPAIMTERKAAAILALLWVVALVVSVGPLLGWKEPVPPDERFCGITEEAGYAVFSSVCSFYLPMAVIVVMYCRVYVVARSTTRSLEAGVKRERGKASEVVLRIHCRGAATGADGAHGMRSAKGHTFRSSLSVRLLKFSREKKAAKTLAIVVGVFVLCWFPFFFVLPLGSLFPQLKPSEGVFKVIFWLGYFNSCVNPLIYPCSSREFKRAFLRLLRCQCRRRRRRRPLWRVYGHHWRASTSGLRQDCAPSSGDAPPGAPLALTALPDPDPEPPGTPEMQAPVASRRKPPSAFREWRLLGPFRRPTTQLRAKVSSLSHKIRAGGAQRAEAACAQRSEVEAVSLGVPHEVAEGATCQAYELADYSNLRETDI

human α1B-adrenoceptor = target: T2, human α1B-adrenoceptor (Homo sapiens, UniProt P35368); experiment: [3H]prazosin whole-cell competition binding, CHO-α1B cells; settings: for selectivity α1B vs α1D: ratio, 1 = no selectivity for a subtype over another; for IC50: read-out: Log IC50 α1B (converted)
T2 construct: CHO cells stably expressing either the full‐length human α1A, α1B, or α1D‐adrenoceptor
T2 sequence (P35368 1-520): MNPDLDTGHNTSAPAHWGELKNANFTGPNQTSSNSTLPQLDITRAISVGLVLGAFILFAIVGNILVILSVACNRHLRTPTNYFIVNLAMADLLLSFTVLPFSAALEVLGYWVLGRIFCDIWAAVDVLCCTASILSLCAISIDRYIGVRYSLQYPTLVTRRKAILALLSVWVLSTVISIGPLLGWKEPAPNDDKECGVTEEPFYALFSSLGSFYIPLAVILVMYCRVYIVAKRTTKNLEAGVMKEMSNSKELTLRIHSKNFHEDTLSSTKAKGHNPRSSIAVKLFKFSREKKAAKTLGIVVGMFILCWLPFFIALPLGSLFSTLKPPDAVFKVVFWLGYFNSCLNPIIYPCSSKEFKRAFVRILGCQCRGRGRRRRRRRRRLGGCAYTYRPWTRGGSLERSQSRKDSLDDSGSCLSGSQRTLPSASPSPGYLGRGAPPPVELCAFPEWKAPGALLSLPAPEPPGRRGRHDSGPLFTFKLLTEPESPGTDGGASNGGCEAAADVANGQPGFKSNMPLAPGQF

human α1A-adrenoceptor = target: T3, human α1A-adrenoceptor (Homo sapiens, UniProt P35348); experiment: [3H]prazosin whole-cell competition binding, CHO-α1A cells; settings: for Selectivity ratio α1A vs α1D / Selectivity ratio α1A vs α1B: ratio of KD values, 1.0 under vs = none; for Selectivity ratio α1A vs α1D: higher α1A affinity; for Selectivity ratio α1A vs α1B: printed under α1A = higher α1A affinity
T3 construct: CHO cells stably expressing either the full‐length human α1A, α1B, or α1D‐adrenoceptor
T3 sequence (P35348 1-466): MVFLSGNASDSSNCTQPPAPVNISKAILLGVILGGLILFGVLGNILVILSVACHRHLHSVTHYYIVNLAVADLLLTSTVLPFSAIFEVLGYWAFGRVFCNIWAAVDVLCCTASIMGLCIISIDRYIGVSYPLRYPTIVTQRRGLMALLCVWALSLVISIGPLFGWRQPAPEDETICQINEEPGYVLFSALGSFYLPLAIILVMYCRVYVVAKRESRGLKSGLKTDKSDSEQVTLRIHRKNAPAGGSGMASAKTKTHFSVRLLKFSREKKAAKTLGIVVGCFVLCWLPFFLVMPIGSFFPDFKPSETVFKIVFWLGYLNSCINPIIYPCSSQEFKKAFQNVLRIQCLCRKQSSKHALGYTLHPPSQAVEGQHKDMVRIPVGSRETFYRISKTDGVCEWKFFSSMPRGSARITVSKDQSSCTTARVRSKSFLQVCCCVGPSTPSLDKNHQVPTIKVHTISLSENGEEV

[2] = Log KD α1D, single-component inhibition curve, given as log KD (negative), mean ± SE mean
[3] = single-component inhibition curve, given as log KD (negative), mean ± SE mean, read-out: Log KD α1B (converted)
[4] = app: top concentration inhibited most but not all specific binding, curve extrapolated
[5] = single-component inhibition curve, given as log KD (negative), mean ± SE mean
[6] = two-component inhibition curve, proportion of site 1
[7] = log KD from 3H-prazosin whole cell binding, CHO cells, mean ± s.e.mean
[8] = ratio, 1 = no selectivity for a subtype over another
[9] = low-affinity component of two-component curve, control

SMILES: CN1CC[C@]2(CCN3CCc4c(oc5ccccc45)[C@@H]3C2)N(C)C1=O.Cl [MK-912]
- Log KD α1D site 1 ([1]; two-component inhibition curve, first (high-affinity) component): -7.30 ± 0.16
- % site 1 α1D [1, 6]: 61.2 ± 5.5%
- Log KD α1D site 2 ([1]; two-component inhibition curve, second (low-affinity) component): -5.50 ± 0.25
- Log KD α1A (human α1A-adrenoceptor; [7]): -6.76 ± 0.03
- selectivity α1A vs 1D (human α1A-adrenoceptor; [8]): 3.5
- selectivity α1A vs α1B (human α1A-adrenoceptor; [8]): 20
- Log KD α1B (human α1B-adrenoceptor; [7]): -5.46 ± 0.05
- selectivity α1B vs α1D (human α1B-adrenoceptor): 69

SMILES: COc1ccccc1N1CCN(CCn2c(=O)[nH]c3c([nH]c4ccccc43)c2=O)CC1 [3-MPPI]
- Log KD α1A (human α1A-adrenoceptor; [7]): -9.57 ± 0.06
- Log KD α1B (human α1B-adrenoceptor; [7]): -8.59 ± 0.03

SMILES: CC(C)(C)NCC(O)COc1cccc2[nH]c(=O)[nH]c12 (centres unmarked) [CGP12177]
- Kd [1, 2]: 63100 nM
- Selectivity ratio α1B vs α1D [1]: >1.6 fold
- Selectivity ratio α1A vs α1D (human α1A-adrenoceptor): 8.7 fold
- Selectivity ratio α1A vs α1B (human α1A-adrenoceptor): >14 fold
- Kd (human α1A-adrenoceptor; single-component inhibition curve, given as log KD (negative), mean ± SE mean, read-out: Log KD α1A (converted)): 7240 nM
- IC50 (human α1B-adrenoceptor): > 100000 nM

SMILES: O=c1[nH]c2ccccc2n1CCCN1CCC(n2c(=O)[nH]c3cc(Cl)ccc32)CC1 [Domperidone]
- Kd [1, 2]: 1050 nM
- Kd (human α1B-adrenoceptor; [3]): 3160 nM

SMILES: CCOc1ccccc1OCCN[C@H](C)Cc1ccc(OC)c(S(N)(=O)=O)c1 [Tamsulosin]
- Log KD α1D site 2 [1]: −5.67 ± 0.15
- Log KD α1D site 2, +1 mmol/L sodium thiosulphate [1]: −5.60 ± 0.08
- effect of sodium thiosulfate preincubation on binding ([1]; 1 mmol/L sodium thiosulfate, tamsulosin at all three receptors (Table 2)): no effect
- Kd ([1]; Log KD α1D site 1, +1 mmol/L sodium thiosulphate, two-component curve, high-affinity component): 0.776 nM
- Kd ([1]; Log KD α1D site 1, high-affinity component of two-component curve, control, used for selectivity): 0.661 nM
- % site 1 α1D, +1 mmol/L sodium thiosulphate ([1]; two-component curve): 44.0 ± 2.8%
- % site 1 α1D [1, 6]: -9.18 ± 0.08 -5.67 ± 0.15 54.6 ± 3.7% site 1
- Kd (human α1B-adrenoceptor; Log KD α1B, +1 mmol/L sodium thiosulphate, ligand preincubated 30 min with thiosulphate, single-component curve (column Log KD site 1)): 7.41 nM
- Kd (human α1B-adrenoceptor; [3]): 7.59 nM

SMILES: O=C1CCc2ccc(OCCCCN3CCN(c4cccc(Cl)c4Cl)CC3)cc2N1 [Aripiprazole]
- Kd [1, 2]: 708 nM

SMILES: CN1CCN2c3ncccc3Cc3ccccc3C2C1 (centres unmarked) [Mirtazepine]
- Log KD α1B (human α1B-adrenoceptor; [5]): −5.36 ± 0.03

SMILES: CC(COc1ccccc1)N(CCCl)Cc1ccccc1 (centres unmarked) [Phenoxybenzamine]
- Kd [1]: 3.72 nM
- Log KD α1D site 2 [1, 9]: −5.42 ± 0.08
- % site 1 α1D [1, 6]: -8.43 ± 0.19 -5.42 ± 0.08 39.1 ± 2.0% site 1
- Kd (human α1B-adrenoceptor; high-affinity component of two-component curve, control, read-out: Log KD α1B site 1 (converted)): 20.4 nM
- Log KD α1B site 2 (human α1B-adrenoceptor; [9]): −5.57 ± 0.06
- % site 1, α1B (human α1B-adrenoceptor; share of site 1 in the two-component inhibition curve): -7.69 ± 0.06 -5.57 ± 0.06 67.5 ± 2.5% site 1
- % site 1, α1B (human α1B-adrenoceptor; [6]): -7.69 ± 0.06 -5.57 ± 0.06 67.5 ± 2.5% site 1

SMILES: CN(C)CCCC1(c2ccc(F)cc2)OCc2cc(C#N)ccc21 (centres unmarked) [Citalopram]
- Kd [1, 2]: 12300 nM
- IC50 (human α1B-adrenoceptor): > 100000 nM

Other lines, results leading:

- Kd [1, 2]: 437 nM
- Kd (human α1B-adrenoceptor; [3]): 132 nM
SMILES: CN1CCN(CCCN2c3ccccc3Sc3ccc(C(F)(F)F)cc32)CC1 [Trifluoperazine]

- Log KD α1D (apparent) [1, 4]: −5.69 ± 0.13^app
- Selectivity ratio α1B vs α1D [1]: 5.9 fold
- Selectivity ratio α1A vs α1D (human α1A-adrenoceptor): 1.6 fold
- Selectivity ratio α1A vs α1B (human α1A-adrenoceptor): 9.5 fold
- Log KD α1A (human α1A-adrenoceptor; [5]): −5.90 ± 0.06
- Log KD α1B (apparent) (human α1B-adrenoceptor; [4]): −4.92 ± 0.02^app
- selectivity α1B vs α1D (human α1B-adrenoceptor): 5.9
SMILES: COc1ccc(NC(=O)N2CCc3c2ccc2ccccc32)cc1N1CCN(C)CC1 [S32212]

- % site 1 α1D ([1]; percentage of inhibition through first component, control): 60.5 ± 3.8% site 1
SMILES: Cc1ccc(N(CC2=NCCN2)c2cccc(O)c2)cc1 [Phentolamine]

- Kd [1, 2]: 1020 nM
- Kd (human α1B-adrenoceptor; [3]): 794 nM
SMILES: CC(CN(C)C)CN1c2ccccc2CCc2ccccc21 (centres unmarked) [Trimipramine]

- Kd [1, 2]: 2340 nM
- IC50 (human α1B-adrenoceptor): > 10000 nM
SMILES: Fc1ccc([C@@H]2CCNC[C@H]2COc2ccc3c(c2)OCO3)cc1 [Paroxetine]

- Kd [1, 2]: 10700 nM
- IC50 (human α1B-adrenoceptor): > 100000 nM
SMILES: COCCCC/C(=N\OCCN)c1ccc(C(F)(F)F)cc1 [Fluvoxamine]

- Kd [1, 2]: 1120 nM
- Kd (human α1B-adrenoceptor; [3]): 162 nM
SMILES: O=c1[nH]c2ccccc2n1C1CCN(CCCC(c2ccc(F)cc2)c2ccc(F)cc2)CC1 [Pimozide]

- Kd [1, 2]: 331 nM
- Kd (human α1B-adrenoceptor; [3]): 61.7 nM
SMILES: OCCOCCN1CCN(C2=Nc3ccccc3Sc3ccccc32)CC1 [Quetiapine]

- Log KD α1D [1, 5]: −7.89 ± 0.07
SMILES: COc1cc2nc(N3CCN(C(=O)COc4c(OC)cccc4C(C)C)CC3)nc(N)c2cc1OC [Rec15‐2615]
